From PubChem BioAssay AID2060510 (Molecular Pharmacology Branch, DTP, NCI, 2025)

System: 439559-082-T-J2-PDC spheroids viability
Test: Anticancer human tumor 439559-082-T-J2-PDC patient-derived colon adenocarcinoma cell line growth inhibition [GQUAD]
Conditions: for IC50: curve of first compound; for viability, T/C: stronger effect = lower value
Method in brief: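 Multi-cell-type spheroids of tumor cells with HUVEC and mesenchymal stem cells, treated with drug combinations. Concentrations descend in half-log steps from near clinical Cmax, or from 10 microM where Cmax is unknown; viability read-out.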

[1] = second compound 0.0316 µM, first compound 0.0316 µM
[2] = second compound 0.0316 µM, first compound 0.316 µM
[3] = second compound 0.1 µM, first compound 0.0316 µM
[4] = second compound 0.1 µM, first compound 0.316 µM
[5] = second compound 0.316 µM, first compound 0.0316 µM
[6] = second compound 0.316 µM, first compound 0.316 µM
[7] = second compound 1 µM, first compound 0.0316 µM
[8] = second compound 1 µM, first compound 0.316 µM
[9] = second compound 3.16 µM, first compound 0.0316 µM
[10] = second compound 3.16 µM, first compound 0.316 µM
[11] = second compound 10 µM, first compound 0.0316 µM
[12] = second compound 10 µM, first compound 0.316 µM
[13] = second compound 0.0316 µM, first compound 0.000999 µM
[14] = second compound 0.0316 µM, first compound 0.00316 µM
[15] = second compound 0.0316 µM, first compound 0.00999 µM
[16] = second compound 0.0316 µM, first compound 0.0999 µM
[17] = second compound 0.1 µM, first compound 0.000999 µM
[18] = second compound 0.1 µM, first compound 0.00316 µM
[19] = second compound 0.1 µM, first compound 0.00999 µM
[20] = second compound 0.1 µM, first compound 0.0999 µM
[21] = second compound 0.316 µM, first compound 0.000999 µM
[22] = second compound 0.316 µM, first compound 0.00316 µM
[23] = second compound 0.316 µM, first compound 0.00999 µM
[24] = second compound 0.316 µM, first compound 0.0999 µM
[25] = second compound 1 µM, first compound 0.000999 µM
[26] = second compound 1 µM, first compound 0.00316 µM
[27] = second compound 1 µM, first compound 0.00999 µM
[28] = second compound 1 µM, first compound 0.0999 µM
[29] = second compound 3.16 µM, first compound 0.000999 µM
[30] = second compound 3.16 µM, first compound 0.00316 µM
[31] = second compound 3.16 µM, first compound 0.00999 µM
[32] = second compound 3.16 µM, first compound 0.0999 µM
[33] = second compound 10 µM, first compound 0.000999 µM
[34] = second compound 10 µM, first compound 0.00316 µM
[35] = second compound 10 µM, first compound 0.00999 µM
[36] = second compound 10 µM, first compound 0.0999 µM
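Further: spheroids exposed to the agents for 7 days before readout.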
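Wherever viability, T/C is given: percent of luminescence signal in DMSO vehicle wells taken as 100% viability.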

## C=CC(=O)N1CCN(c2nc(=O)n(-c3c(C)ccnc3C(C)C)c3nc(-c4c(O)cccc4F)c(F)cc23)C(C)C1 (stereo unspecified) + CN(C)c1ccc(Nc2c3ccc(NC(=O)CCN4CCCC4)cc3nc3cc(NC(=O)CCN4CCCC4)ccc23)cc1
Second compound 0.0316 µM
  IC50: > 10 µM
Second compound 0.1 µM
  IC50: > 10 µM
Second compound 0.316 µM
  IC50: > 10 µM
Second compound 1 µM
  IC50: > 10 µM
Second compound 3.16 µM
  IC50: > 10 µM
Second compound 10 µM
  IC50: > 10 µM
[1]
  viability, T/C: 103%
Second compound 0.0316 µM, first compound 0.1 µM
  viability, T/C: 91.4%
[2]
  viability, T/C: 93.6%
Second compound 0.0316 µM, first compound 1 µM
  viability, T/C: 104%
Second compound 0.0316 µM, first compound 3.16 µM
  viability, T/C: 111%
Second compound 0.0316 µM, first compound 10 µM
  viability, T/C: 95.4%
[3]
  viability, T/C: 105%
Second compound 0.1 µM, first compound 0.1 µM
  viability, T/C: 92.2%
[4]
  viability, T/C: 104%
Second compound 0.1 µM, first compound 1 µM
  viability, T/C: 97.6%
Second compound 0.1 µM, first compound 3.16 µM
  viability, T/C: 111%
Second compound 0.1 µM, first compound 10 µM
  viability, T/C: 104%
[5]
  viability, T/C: 104%
Second compound 0.316 µM, first compound 0.1 µM
  viability, T/C: 102%
[6]
  viability, T/C: 91.6%
Second compound 0.316 µM, first compound 1 µM
  viability, T/C: 114%
Second compound 0.316 µM, first compound 3.16 µM
  viability, T/C: 106%
Second compound 0.316 µM, first compound 10 µM
  viability, T/C: 110%
[7]
  viability, T/C: 112%
Second compound 1 µM, first compound 0.1 µM
  viability, T/C: 96.3%
[8]
  viability, T/C: 105%
Second compound 1 µM, first compound 1 µM
  viability, T/C: 97.6%
Second compound 1 µM, first compound 3.16 µM
  viability, T/C: 120%
Second compound 1 µM, first compound 10 µM
  viability, T/C: 108%
[9]
  viability, T/C: 94.8%
Second compound 3.16 µM, first compound 0.1 µM
  viability, T/C: 103%
[10]
  viability, T/C: 108%
Second compound 3.16 µM, first compound 1 µM
  viability, T/C: 108%
Second compound 3.16 µM, first compound 3.16 µM
  viability, T/C: 114%
Second compound 3.16 µM, first compound 10 µM
  viability, T/C: 108%
[11]
  viability, T/C: 103%
Second compound 10 µM, first compound 0.1 µM
  viability, T/C: 96%
[12]
  viability, T/C: 96.8%
Second compound 10 µM, first compound 1 µM
  viability, T/C: 106%
Second compound 10 µM, first compound 3.16 µM
  viability, T/C: 109%
Second compound 10 µM, first compound 10 µM
  viability, T/C: 100%

## CC[C@@]1(O)C(=O)OCc2c1cc1n(c2=O)Cc2cc3c(CN(C)C)c(O)ccc3nc2-1 + CN(C)c1ccc(Nc2c3ccc(NC(=O)CCN4CCCC4)cc3nc3cc(NC(=O)CCN4CCCC4)ccc23)cc1
Second compound 0.0316 µM
  IC50: > 0.316 µM
Second compound 0.1 µM
  IC50: > 0.316 µM
Second compound 0.316 µM
  IC50: > 0.316 µM
Second compound 1 µM
  IC50: > 0.316 µM
Second compound 3.16 µM
  IC50: > 0.316 µM
Second compound 10 µM
  IC50: > 0.316 µM
[13]
  viability, T/C: 102%
[14]
  viability, T/C: 94.6%
[15]
  viability, T/C: 104%
[1]
  viability, T/C: 106%
[16]
  viability, T/C: 90.2%
[2]
  viability, T/C: 76%
[17]
  viability, T/C: 108%
[18]
  viability, T/C: 111%
[19]
  viability, T/C: 102%
[3]
  viability, T/C: 85.7%
[20]
  viability, T/C: 91.8%
[4]
  viability, T/C: 84%
[21]
  viability, T/C: 123%
[22]
  viability, T/C: 97.1%
[23]
  viability, T/C: 101%
[5]
  viability, T/C: 100%
[24]
  viability, T/C: 87.9%
[6]
  viability, T/C: 84.7%
[25]
  viability, T/C: 114%
[26]
  viability, T/C: 99%
[27]
  viability, T/C: 88.5%
[7]
  viability, T/C: 101%
[28]
  viability, T/C: 91.1%
[8]
  viability, T/C: 80.1%
[29]
  viability, T/C: 99.8%
[30]
  viability, T/C: 92.6%
[31]
  viability, T/C: 102%
[9]
  viability, T/C: 93.2%
[32]
  viability, T/C: 103%
[10]
  viability, T/C: 91.9%
[33]
  viability, T/C: 102%
[34]
  viability, T/C: 95%
[35]
  viability, T/C: 100%
[11]
  viability, T/C: 107%
[36]
  viability, T/C: 85.8%
[12]
  viability, T/C: 88.5%

## CCc1c2c(nc3ccc(O)cc13)-c1cc3c(c(=O)n1C2)COC(=O)[C@]3(O)CC + CN(C)c1ccc(Nc2c3ccc(NC(=O)CCN4CCCC4)cc3nc3cc(NC(=O)CCN4CCCC4)ccc23)cc1
Second compound 0.0316 µM
  IC50: 0.163 µM
Second compound 0.1 µM
  IC50: 0.181 µM
Second compound 0.316 µM
  IC50: 0.207 µM
Second compound 1 µM
  IC50: 0.179 µM
Second compound 3.16 µM
  IC50: 0.196 µM
Second compound 10 µM
  IC50: 0.195 µM
[13]
  viability, T/C: 99.7%
[14]
  viability, T/C: 88.5%
[15]
  viability, T/C: 72.7%
[1]
  viability, T/C: 70.1%
[16]
  viability, T/C: 52.5%
[2]
  viability, T/C: 43.8%
[17]
  viability, T/C: 110%
[18]
  viability, T/C: 91%
[19]
  viability, T/C: 82.1%
[3]
  viability, T/C: 72.6%
[20]
  viability, T/C: 56.6%
[4]
  viability, T/C: 42.9%
[21]
  viability, T/C: 104%
[22]
  viability, T/C: 93.6%
[23]
  viability, T/C: 77.1%
[5]
  viability, T/C: 70.5%
[24]
  viability, T/C: 67.7%
[6]
  viability, T/C: 40.3%
[25]
  viability, T/C: 93.3%
[26]
  viability, T/C: 85.7%
[27]
  viability, T/C: 85.8%
[7]
  viability, T/C: 69.3%
[28]
  viability, T/C: 56.8%
[8]
  viability, T/C: 43.9%
[29]
  viability, T/C: 100%
[30]
  viability, T/C: 90%
[31]
  viability, T/C: 76.6%
[9]
  viability, T/C: 64.2%
[32]
  viability, T/C: 61.5%
[10]
  viability, T/C: 43.2%
[33]
  viability, T/C: 106%
[34]
  viability, T/C: 79%
[35]
  viability, T/C: 80.8%
[11]
  viability, T/C: 75.4%
[36]
  viability, T/C: 59.6%
[12]
  viability, T/C: 41.7%
